We go through three compounds from ChEMBL document CHEMBL2034973, “Exploring activity cliffs in medicinal chemistry” (J Med Chem, 2012).

In general, IC50 refers to the point on the concentration scale where inhibition reaches its midpoint.

For one assay, the target named is Procathepsin L (Homo sapiens, UniProt P07711). The assay can be described thus: Inhibition of cathepsin L.
In another assay the target is Cathepsin B (Homo sapiens, UniProt P07858). The assay can be described thus: Inhibition of cathepsin B.
For assay [1], the target named is T1, Prostaglandin G/H synthase 2 (Homo sapiens, UniProt P35354).
T1 sequence (P35354 whole entry): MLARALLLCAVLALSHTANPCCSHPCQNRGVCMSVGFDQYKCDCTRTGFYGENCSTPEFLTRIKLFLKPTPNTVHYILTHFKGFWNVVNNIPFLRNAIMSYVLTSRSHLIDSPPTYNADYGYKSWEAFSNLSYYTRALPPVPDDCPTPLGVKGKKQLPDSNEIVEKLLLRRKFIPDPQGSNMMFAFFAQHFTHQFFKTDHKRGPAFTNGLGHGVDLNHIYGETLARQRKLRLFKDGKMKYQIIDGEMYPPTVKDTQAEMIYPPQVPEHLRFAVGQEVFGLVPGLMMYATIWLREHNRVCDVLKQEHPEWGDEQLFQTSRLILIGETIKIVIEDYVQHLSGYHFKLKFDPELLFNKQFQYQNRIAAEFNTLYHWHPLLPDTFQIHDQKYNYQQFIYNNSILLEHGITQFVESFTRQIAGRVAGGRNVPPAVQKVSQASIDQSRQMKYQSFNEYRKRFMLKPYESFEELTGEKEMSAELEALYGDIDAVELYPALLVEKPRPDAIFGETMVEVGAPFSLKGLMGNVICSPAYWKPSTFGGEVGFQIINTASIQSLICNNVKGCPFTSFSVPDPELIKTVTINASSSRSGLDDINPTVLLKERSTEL
The assay can be described thus: Inhibition of COX2.

In assay [2] the target is Prostaglandin G/H synthase 1 (Homo sapiens, UniProt P23219). The assay can be described thus: Inhibition of COX1.
Prostaglandin G/H synthase 1, sequence (P23219 whole entry): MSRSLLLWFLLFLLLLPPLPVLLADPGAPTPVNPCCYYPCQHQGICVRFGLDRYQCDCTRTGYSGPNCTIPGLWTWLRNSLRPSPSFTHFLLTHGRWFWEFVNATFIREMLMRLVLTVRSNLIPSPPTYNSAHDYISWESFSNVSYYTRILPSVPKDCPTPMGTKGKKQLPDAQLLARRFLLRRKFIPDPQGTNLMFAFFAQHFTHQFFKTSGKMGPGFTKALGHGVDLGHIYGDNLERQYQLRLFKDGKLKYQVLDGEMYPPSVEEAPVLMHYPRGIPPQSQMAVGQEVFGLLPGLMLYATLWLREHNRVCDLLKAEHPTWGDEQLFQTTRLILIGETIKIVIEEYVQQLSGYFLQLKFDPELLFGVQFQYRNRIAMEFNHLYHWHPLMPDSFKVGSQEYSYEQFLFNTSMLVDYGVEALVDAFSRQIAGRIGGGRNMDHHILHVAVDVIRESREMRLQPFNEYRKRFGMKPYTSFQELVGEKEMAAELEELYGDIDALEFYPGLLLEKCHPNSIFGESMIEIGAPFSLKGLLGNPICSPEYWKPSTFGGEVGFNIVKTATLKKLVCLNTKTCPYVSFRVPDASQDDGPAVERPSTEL

Procathepsin L, sequence (P07711 whole entry): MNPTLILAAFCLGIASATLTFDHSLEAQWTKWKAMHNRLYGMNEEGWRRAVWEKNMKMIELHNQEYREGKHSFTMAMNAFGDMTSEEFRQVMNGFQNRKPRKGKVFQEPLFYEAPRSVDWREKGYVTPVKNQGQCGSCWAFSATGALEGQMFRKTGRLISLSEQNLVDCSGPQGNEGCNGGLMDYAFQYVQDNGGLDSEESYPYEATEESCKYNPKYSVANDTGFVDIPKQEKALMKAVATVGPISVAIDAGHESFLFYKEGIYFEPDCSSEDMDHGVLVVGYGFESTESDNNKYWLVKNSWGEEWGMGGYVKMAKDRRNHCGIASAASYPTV

Regarding `N#CCNC(=O)C1CCCCC1CSc1cccc(Cl)c1` (stereo unspecified), the IC50 on Procathepsin L worked out at 3.6 µM; at Cathepsin B, 102 µM.
For `N#CCNC(=O)C1CCCCC1CSc1ccccc1` (stereo unspecified), the values for the 50% inhibitory concentration (IC50) on Procathepsin L and against Cathepsin B were 26 µM and 5.3 µM, respectively.
With `Cc1ccc(Nc2c(F)cccc2Cl)c(CC(=O)O)c1` [LUMIRACOXIB], the IC50 is greater than 10 µM in assay [1] and 0.007 µM in assay [2].
